In patent US10626144B2, “Peptide derivatives and uses thereof” (Nosopharm, priority 2014, dated 2020):
One block for each compound: values may come before it. Square brackets hold non-standard residues; d marks the D form. Peptide text beside a SMILES is read from it. * marks the point of attachment. ξ: configuration not given here. Pro(cis-4-CF3) = O=C(O)[C@@H]1C[C@H](C(F)(F)F)CN1; Oic(3aξ,7aξ) = O=C(O)[C@@H]1CC2CCCCC2N1; Pro(4,4-F2) = O=C(O)[C@@H]1CC(F)(F)CN1; Pro(4R-NH2) = N[C@H]1CN[C@H](C(=O)O)C1; ΔZArg = N=C(N)NCC/C=C(\N)C(=O)O; dOrn = NCCC[C@@H](N)C(=O)O; Pip = O=C(O)[C@@H]1CCCCN1; Orn = NCCC[C@H](N)C(=O)O; Dab = NCC[C@H](N)C(=O)O; NH(CH2)5NH2 = NCCCCCN*; NH(CH2)4NH2 = NCCCCN*; ξAze = O=C(O)C1CCN1; NHOH = ON*

Assays:
Experiment in all cases: MIC, broth microdilution (CLSI), reference strain
Details in all cases: CAMHB
[1] = tested on: Pseudomonas aeruginosa ATCC 27853
[2] = tested on: Staphylococcus aureus ATCC 13709
[3] = tested on: Acinetobacter baumannii ATCC 19606
[4] = tested on: Escherichia coli ATCC 25922

Structure (SMILES): C[C@H](NC(=O)[C@H](CCN)NC(=O)[C@@H](N)CCCCN)C(=O)NCC(=O)N[C@H](CCCN)C(=O)N1CC(F)(F)C[C@H]1C(=O)N[C@@H](Cc1cnc[nH]1)C(=O)N[C@@H](CCCCN)C(=O)N/C(=C\CCNC(=N)N)C(=O)N[C@@H](CCCCN)C(=O)NCCCCN [14.10] (H-K[Dab]AG[dOrn][Pro(4,4-F2)]HK[ΔZArg]K-{NH(CH2)4NH2})
Pa: MIC Pseudomonas aeruginosa ATCC 27853 [1]: − (>32 μg/mL)
Sa: MIC Staphylococcus aureus ATCC 13709 [2]: ++ (≤8 μg/mL)
Ab: MIC Acinetobacter baumannii ATCC 19606 [3]: − (>32 μg/mL)
Ec: MIC Escherichia coli ATCC 25922 [4]: − (>32 μg/mL)

Structure (SMILES): C[C@H](NC(=O)[C@H](CCN)NC(=O)[C@@H](N)CCCCN)C(=O)NCC(=O)N[C@H](CCCN)C(=O)N1CCC[C@H]1C(=O)N[C@@H](Cc1cnc[nH]1)C(=O)N[C@@H](CCCCN)C(=O)N/C(=C\CCNC(=N)N)C(=O)N[C@H](CCCCN)C(=O)NCCCCN [14.11] (H-K[Dab]AG[dOrn]PHK[ΔZArg][dK]-{NH(CH2)4NH2})
Pa: MIC Pseudomonas aeruginosa ATCC 27853 [1]: − (>32 μg/mL)
Sa: MIC Staphylococcus aureus ATCC 13709 [2]: ++ (≤8 μg/mL)
Ab: MIC Acinetobacter baumannii ATCC 19606 [3]: − (>32 μg/mL)
Ec: MIC Escherichia coli ATCC 25922 [4]: − (>32 μg/mL)

Structure (SMILES): C[C@H](NC(=O)[C@H](CCN)NC(=O)[C@@H](N)CCCCN)C(=O)NCC(=O)N[C@H](CCCN)C(=O)N1CCC[C@H]1C(=O)N[C@@H](Cc1cnc[nH]1)C(=O)N[C@@H](CCCCN)C(=O)N/C(=C\CCNC(=N)N)C(=O)N[C@@H](CCCCN)C(N)=O [14.12] (H-K[Dab]AG[dOrn]PHK[ΔZArg]K-NH2)
Pa: MIC Pseudomonas aeruginosa ATCC 27853 [1]: − (>32 μg/mL)
Sa: MIC Staphylococcus aureus ATCC 13709 [2]: ++ (≤8 μg/mL)
Ab: MIC Acinetobacter baumannii ATCC 19606 [3]: − (>32 μg/mL)
Ec: MIC Escherichia coli ATCC 25922 [4]: + (≤32 μg/mL)

Structure (SMILES): C[C@H](NC(=O)[C@H](CCN)NC(=O)[C@@H](N)CCCCN)C(=O)NCC(=O)N[C@H](CCCN)C(=O)N1CCCC[C@H]1C(=O)N[C@@H](Cc1cnc[nH]1)C(=O)N[C@@H](CCCCN)C(=O)N/C(=C\CCNC(=N)N)C(=O)N[C@@H](CCCCN)C(=O)NCCCCN [14.13] (H-K[Dab]AG[dOrn][Pip]HK[ΔZArg]K-{NH(CH2)4NH2})
Pa: MIC Pseudomonas aeruginosa ATCC 27853 [1]: − (>32 μg/mL)
Sa: MIC Staphylococcus aureus ATCC 13709 [2]: ++ (≤8 μg/mL)
Ab: MIC Acinetobacter baumannii ATCC 19606 [3]: − (>32 μg/mL)
Ec: MIC Escherichia coli ATCC 25922 [4]: + (≤32 μg/mL)

Structure (SMILES): C[C@H](NC(=O)[C@H](CCN)NC(=O)[C@@H](N)CCCCN)C(=O)NCC(=O)N[C@H](CCCN)C(=O)N1CCC[C@H]1C(=O)N[C@@H](Cc1cnc[nH]1)C(=O)N[C@@H](CCCCN)C(=O)N/C(=C\CCNC(=N)N)C(=O)N[C@@H](CCCCN)C(=O)NO [14.14] (H-K[Dab]AG[dOrn]PHK[ΔZArg]K-{NHOH})
Pa: MIC Pseudomonas aeruginosa ATCC 27853 [1]: − (>32 μg/mL)
Sa: MIC Staphylococcus aureus ATCC 13709 [2]: ++ (≤8 μg/mL)
Ab: MIC Acinetobacter baumannii ATCC 19606 [3]: − (>32 μg/mL)
Ec: MIC Escherichia coli ATCC 25922 [4]: − (>32 μg/mL)

Structure (SMILES): C[C@H](NC(=O)[C@H](CCN)NC(=O)[C@@H](N)CCCCN)C(=O)NCC(=O)N[C@H](CCCN)C(=O)N1C[C@@H](C(F)(F)F)C[C@H]1C(=O)N[C@@H](Cc1cnc[nH]1)C(=O)N[C@@H](CCCCN)C(=O)N/C(=C\CCNC(=N)N)C(=O)N[C@@H](CCCCN)C(=O)NCCCCN [14.15] (H-K[Dab]AG[dOrn][Pro(cis-4-CF3)]HK[ΔZArg]K-{NH(CH2)4NH2})
Pa: MIC Pseudomonas aeruginosa ATCC 27853 [1]: − (>32 μg/mL)
Sa: MIC Staphylococcus aureus ATCC 13709 [2]: ++ (≤8 μg/mL)
Ab: MIC Acinetobacter baumannii ATCC 19606 [3]: − (>32 μg/mL)
Ec: MIC Escherichia coli ATCC 25922 [4]: − (>32 μg/mL)

Structure (SMILES): C[C@H](NC(=O)[C@H](CCN)NC(=O)[C@@H](N)CCCN)C(=O)NCC(=O)N[C@H](CCCN)C(=O)N1CCC[C@H]1C(=O)N[C@@H](Cc1cnc[nH]1)C(=O)N[C@@H](CCCCN)C(=O)N/C(=C\CCNC(=N)N)C(=O)N[C@@H](CCCCN)C(=O)NCCCCN [14.16] (H-[Orn][Dab]AG[dOrn]PHK[ΔZArg]K-{NH(CH2)4NH2})
Pa: MIC Pseudomonas aeruginosa ATCC 27853 [1]: − (>32 μg/mL)
Sa: MIC Staphylococcus aureus ATCC 13709 [2]: ++ (≤8 μg/mL)
Ab: MIC Acinetobacter baumannii ATCC 19606 [3]: − (>32 μg/mL)
Ec: MIC Escherichia coli ATCC 25922 [4]: − (>32 μg/mL)

Other lines, results leading:

Pa: MIC Pseudomonas aeruginosa ATCC 27853 [1]: − (>32 μg/mL)
Sa: MIC Staphylococcus aureus ATCC 13709 [2]: ++ (≤8 μg/mL)
Ab: MIC Acinetobacter baumannii ATCC 19606 [3]: − (>32 μg/mL)
Ec: MIC Escherichia coli ATCC 25922 [4]: − (>32 μg/mL)
Structure (SMILES): C[C@H](NC(=O)[C@H](CCN)NC(=O)[C@@H](N)CCCCN)C(=O)NCC(=O)N[C@H](CCCN)C(=O)N1C[C@H](N)C[C@H]1C(=O)N[C@@H](Cc1cnc[nH]1)C(=O)N[C@@H](CCCCN)C(=O)N/C(=C\CCNC(=N)N)C(=O)N[C@@H](CCCCN)C(=O)NCCCCN [14.17] (H-K[Dab]AG[dOrn][Pro(4R-NH2)]HK[ΔZArg]K-{NH(CH2)4NH2})

Pa: MIC Pseudomonas aeruginosa ATCC 27853 [1]: − (>32 μg/mL)
Sa: MIC Staphylococcus aureus ATCC 13709 [2]: ++ (≤8 μg/mL)
Ab: MIC Acinetobacter baumannii ATCC 19606 [3]: − (>32 μg/mL)
Ec: MIC Escherichia coli ATCC 25922 [4]: − (>32 μg/mL)
Structure (SMILES): C[C@H](NC(=O)[C@H](CCN)NC(=O)[C@@H](N)CCCCN)C(=O)NCC(=O)N[C@H](CCCN)C(=O)N1CCC1C(=O)N[C@@H](Cc1cnc[nH]1)C(=O)N[C@@H](CCCCN)C(=O)N/C(=C\CCNC(=N)N)C(=O)N[C@@H](CCCCN)C(=O)NCCCCN (stereo partly shown) [14.18] (H-K[Dab]AG[dOrn][ξAze]HK[ΔZArg]K-{NH(CH2)4NH2})

Pa: MIC Pseudomonas aeruginosa ATCC 27853 [1]: − (>32 μg/mL)
Sa: MIC Staphylococcus aureus ATCC 13709 [2]: ++ (≤8 μg/mL)
Ab: MIC Acinetobacter baumannii ATCC 19606 [3]: − (>32 μg/mL)
Ec: MIC Escherichia coli ATCC 25922 [4]: − (>32 μg/mL)
Structure (SMILES): C[C@H](NC(=O)[C@H](CCN)NC(=O)[C@@H](N)CCCCN)C(=O)NCC(=O)N[C@H](CCCN)C(=O)N1C2CCCCC2C[C@H]1C(=O)N[C@@H](Cc1cnc[nH]1)C(=O)N[C@@H](CCCCN)C(=O)N/C(=C\CCNC(=N)N)C(=O)N[C@@H](CCCCN)C(=O)NCCCCN (stereo partly shown) [14.19] (H-K[Dab]AG[dOrn][Oic(3aξ,7aξ)]HK[ΔZArg]K-{NH(CH2)4NH2})

Pa: MIC Pseudomonas aeruginosa ATCC 27853 [1]: − (>32 μg/mL)
Sa: MIC Staphylococcus aureus ATCC 13709 [2]: + (≤32 μg/mL)
Ab: MIC Acinetobacter baumannii ATCC 19606 [3]: − (>32 μg/mL)
Ec: MIC Escherichia coli ATCC 25922 [4]: − (>32 μg/mL)
Structure (SMILES): C[C@H](NC(=O)[C@H](CCN)NC(=O)[C@@H](N)CCCCN)C(=O)NCC(=O)N[C@H](CCCN)C(=O)N1CCC[C@H]1C(=O)N[C@@H](Cc1cnc[nH]1)C(=O)N[C@@H](CCCCN)C(=O)N/C(=C\CCNC(=N)N)C(=O)NCCCCCN [14.20] (H-K[Dab]AG[dOrn]PHK[ΔZArg]-{NH(CH2)5NH2})

Pa: MIC Pseudomonas aeruginosa ATCC 27853 [1]: − (>32 μg/mL)
Sa: MIC Staphylococcus aureus ATCC 13709 [2]: + (≤32 μg/mL)
Ab: MIC Acinetobacter baumannii ATCC 19606 [3]: − (>32 μg/mL)
Ec: MIC Escherichia coli ATCC 25922 [4]: − (>32 μg/mL)
Structure (SMILES): C[C@H](NC(=O)[C@H](CCN)NC(=O)[C@@H](N)CCCCN)C(=O)NCC(=O)N[C@H](CCCN)C(=O)N1CCC[C@H]1C(=O)N[C@@H](Cc1cnc[nH]1)C(=O)N[C@@H](CCCCN)C(=O)N/C(=C\CCNC(=N)N)C(=O)N[C@@H](CCCCN)C(=O)O [14.21] (H-K[Dab]AG[dOrn]PHK[ΔZArg]K-OH)

Pa: MIC Pseudomonas aeruginosa ATCC 27853 [1]: − (>32 μg/mL)
Sa: MIC Staphylococcus aureus ATCC 13709 [2]: + (≤32 μg/mL)
Ab: MIC Acinetobacter baumannii ATCC 19606 [3]: − (>32 μg/mL)
Ec: MIC Escherichia coli ATCC 25922 [4]: − (>32 μg/mL)
Structure (SMILES): C[C@H](NC(=O)[C@H](CCN)NC(=O)[C@H](N)CCCCN)C(=O)NCC(=O)N[C@H](CCCN)C(=O)N1CCC[C@H]1C(=O)N[C@@H](Cc1cnc[nH]1)C(=O)N[C@@H](CCCCN)C(=O)N/C(=C\CCNC(=N)N)C(=O)N[C@@H](CCCCN)C(=O)NCCCCN [14.22] (H-[dK][Dab]AG[dOrn]PHK[ΔZArg]K-{NH(CH2)4NH2})

Pa: MIC Pseudomonas aeruginosa ATCC 27853 [1]: − (>32 μg/mL)
Sa: MIC Staphylococcus aureus ATCC 13709 [2]: + (≤32 μg/mL)
Ab: MIC Acinetobacter baumannii ATCC 19606 [3]: − (>32 μg/mL)
Ec: MIC Escherichia coli ATCC 25922 [4]: − (>32 μg/mL)
Structure (SMILES): C[C@H](NC(=O)/C(=C/CCNC(=N)N)NC(=O)[C@H](CCCCN)NC(=O)[C@H](Cc1cnc[nH]1)NC(=O)[C@@H]1CCCN1C(=O)[C@@H](CCCN)NC(=O)CNC(=O)[C@H](C)NC(=O)[C@H](CCN)NC(=O)[C@@H](N)CCCCN)C(=O)NCCCCN [14.23] (H-K[Dab]AG[dOrn]PHK[ΔZArg]A-{NH(CH2)4NH2})

Pa: MIC Pseudomonas aeruginosa ATCC 27853 [1]: − (>32 μg/mL)
Sa: MIC Staphylococcus aureus ATCC 13709 [2]: + (≤32 μg/mL)
Ab: MIC Acinetobacter baumannii ATCC 19606 [3]: − (>32 μg/mL)
Ec: MIC Escherichia coli ATCC 25922 [4]: − (>32 μg/mL)
Structure (SMILES): C[C@H](NC(=O)[C@H](CCN)NC(=O)[C@@H](N)CCCCN)C(=O)NCC(=O)N[C@H](CCCN)C(=O)N1CCC[C@H]1C(=O)N[C@@H](Cc1cnc[nH]1)C(=O)N[C@@H](CCCCN)C(=O)N[C@H](CCCNC(=N)N)C(=O)N[C@@H](CCCCN)C(=O)NCCCCN [14.24] (H-K[Dab]AG[dOrn]PHK[dR]K-{NH(CH2)4NH2})

Pa: MIC Pseudomonas aeruginosa ATCC 27853 [1]: − (>32 μg/mL)
Sa: MIC Staphylococcus aureus ATCC 13709 [2]: + (≤32 μg/mL)
Ab: MIC Acinetobacter baumannii ATCC 19606 [3]: − (>32 μg/mL)
Ec: MIC Escherichia coli ATCC 25922 [4]: − (>32 μg/mL)
Structure (SMILES): C[C@H](NC(=O)[C@H](CCN)NC(=O)[C@@H](N)CCN)C(=O)NCC(=O)N[C@H](CCCN)C(=O)N1CCC[C@H]1C(=O)N[C@@H](Cc1cnc[nH]1)C(=O)N[C@@H](CCCCN)C(=O)N/C(=C\CCNC(=N)N)C(=O)N[C@@H](CCCCN)C(=O)NCCCCN [14.25] (H-[Dab][Dab]AG[dOrn]PHK[ΔZArg]K-{NH(CH2)4NH2})
